Measured values as given in patent US20130156832A1, “EUDERMIC COMPOSITIONS” (Miso S.r.I., priority 2010, published 2013).

Assay: Saturation concentration (solubility) of salicylic acid in vehicle A (water)
Format: physicochemical

saturation concentration (Cs, SA-A): 2 mg/mL
Structure (SMILES): O=C(O)c1ccccc1O [salicylic acid]
